Test results as given in patent US20230136562A1, “SPIROUREA DERIVATIVES” (Idorsia Pharmaceuticals Ltd, priority 2020, published 2023).

Key:
Kv7.2/7.3 = target: T1, Kv7.2/7.3 (Homo sapiens, UniProt O43525+O43526); test: Kv7.2/3 assay (FLIPR potassium assay, agonist mode); format: cell-based; conditions: Kv7.2/7.3 activation; HEK293 cells, human KCNQ2 and KCNQ3
T1 construct: expressed in transfected cells; host or cells: HEK293
Procedure: HEK293 cells were stably transfected with the appropriate ion channel cDNA(s) (human KCNQ2 and KCNQ3 genes). Cells were cultured in Dulbecco's Modified Eagle Medium/Nutrient mixture F-12 (D-MEM/F-12) supplemented with 10% fetal bovine serum, 100 U/mL penicillin G sodium, 100 µg/mL streptomycin sulfate and selection antibiotics. FLIPR Test Procedure: For FLIPR assay, cells were plated in 384-well black clear-bottomed microtiter plates (BD Biocoat Poly-D-Lysine Multiwell Cell Culture Plate) at 15'000 to 30'000 cells per well. Cells were incubated at 37° C. overnight or until cells reached sufficient density in the wells (near confluent monolayer) to use in fluorescence assays. […] Assays were performed with the FLIPR potassium assay kit (Molecular Devices) according to the manufacturer's instructions. Dye-loading: Growth media was removed and replaced with 20 μL of dye loading buffer for 60 min at room temperature. FLIPR Recording (agonist mode): Stock solutions of test compounds were prepared at a concentration of 33.3 mM in DMSO. 5 μL of 5× concentrated test, vehicle, or control compounds solutions prepared in the stimulation buffer (K^+-free buffer with 5 mM TI^+) were added to each well and fluorescence recording was continued for 5 min. The agonist effect (EC50 and % effect) of test or control compounds on Kv7 channels was determined as follows: Raw data was exported using Screenworks® 4.2 software and the fluorescence traces were analysed using Microsoft Excel (Microsoft Corp., Redmond, Wash.). The test compounds responses were expressed as % of maximum response of the control compound Flupirtine (Sigma-Aldrich), which was tested at concentrations ranging from 0.03 to 100 μM. Concentration-response data were fitted to a Hill equation. Non-linear least squares fits were made assuming a simple binding model. If appropriate, fits were weighted by the standard deviation. No assumptions about the fit parameters were made; the fit parameters were determined by the algorithm.

Wistar rats = test: Amygdala-kindling rat model; format: in vivo; conditions: formulation 90% MC 0.5% + 10% PEG400
Procedure: Formulation and Administration.
Compounds were formulated in a 10% polyethylene glycol 400 (PEG 400)/90% aqueous solution of 0.5% methylcellulose (MC 0.5%). Firstly drugs are dissolved in PEG 400 and then suspended in MC 0.5% for oral gavage at X mg/5 mL/kg (X see table).
Amygdala-Kindling Rat Model:
1. Procedure: Adult male Wistar rats (Harlan Laboratories, Netherlands, or Charles Rivers, Germany; body weight 300-350 g) were stereotaxically implanted with twisted bipolar plastic-coated stainless steel electrode (MS333-2-BIU 10 mm, Plastics One) into the right basolateral amygdala under isoflurane anesthesia. To place the electrode, trepanations were made in the skull and the electrode was lowered into the right basolateral amygdala (from bregma: anteriorposterior (AP): −2.5 mm, medio-lateral (ML): −3.5 mm, dorso-ventral (DV): −8.6 mm; α=10°) and secured to the skull with screws and dental acrylate. After one week of recovery, they were handled daily and habituated over one week to the kindling set-up. Kindling procedure: For a kindling session each rat was placed individually into a smooth acrylic plastic, round-bottomed bowl (Ø 36 cm, height 36 cm, BASi movement-responsive caging system) and its intracranial implanted electrode was connected to the stimulator (STG4008, Multichannel Systems GmbH) and the recording devices (PowerLab 8/35, ADInstruments Ltd) via a cable (335-340/3 (C), Plastics One). For the kindling procedure, each rat was exposed once daily to an electrical stimulation and the behavioral symptoms of the evoked seizure were observed and classified according to the modified Racine scale (stage 0, arrest, wet dog shakes, normal behaviour; stage 1, facial twitches: nose, lips, eyes; stage 2, chewing, head nodding; stage 3, forelimb clonus; stage 4, rearing, falling on forelimbs; stage 5, rearing, falling on side or back, rolling). The electrical stimulus consists of a 1s-train of 50 Hz square-wave biphasic pulses of 1-ms duration at an intensity of 400 μA (suprathreshold intensity). […] Data Scoring and analysis. The duration of electroencephalographic seizures (afterdischarge, AD) was recorded using LabChart7 Pro software (ADlnstruments Ltd). Simultaneously, videos were recorded to evaluate seizure stage (SS).
2. Compound testing: Acute drug effects were evaluated in groups of 6-8 fully kindled rats in a randomized cross-over design with 48 h between drug and vehicle applications. Following oral administration of drug or vehicle, drug testing included determination of the afterdischarge threshold (the minimal stimulation intensity necessary to evoke an afterdischarge (electroencephalographically measured neuronal hyper-synchronous activity with an amplitude 2-times higher than baseline amplitude and a frequency of ≥1 Hz) of at least 3 sec duration) and monitoring electroencephalographic and behavioral correlates of the evoked seizure at ADT (afterdischarge threshold), including AD duration and SS, by a experimenter blind to treatment assignment.

[1] = 30 mg/kg po, time of challenge 1 h
[2] = 10 mg/kg po, time of challenge 15 min
[3] = 100 mg/kg po, time of challenge 1 h

Row | EC50 (Kv7.2/7.3) | SMILES | AD duration [% vs veh] (Wistar rats; [1]) | Seizure stage [% vs veh] (Wistar rats; [1]) | AD duration [% vs veh] (Wistar rats; [2]) | Seizure stage [% vs veh] (Wistar rats; [2]) | AD duration [% vs veh] (Wistar rats; [3]) | Seizure stage [% vs veh] (Wistar rats; [3])
1 | 12.4 nM | O=C(NCc1cc(OCC(F)(F)F)ncn1)NC1CC2(CCC2)C1 [Example 59, 1-Spiro[3.3]hept-2-yl-3-[6-(2,2,2-trifluoro-ethoxy)-pyrimidin-4-ylmethyl]-urea] | −96 % vs veh | −83 % vs veh | – | – | – | –
2 | 23 nM | O=C(NC1CC2(CC2)C1)N[C@@H](CO)c1cccc(C(F)(F)F)c1 (single isomer, unassigned) [Example 186] | – | – | −87 % vs veh | −50 % vs veh | – | –
3 | 70 nM | O=C(NCc1cccc(C(F)(F)F)c1)NC1CC2(CC2)C1 [Example 2, 1-Spiro[2.3]hex-5-yl-3-(3-trifluoromethyl-benzyl)-urea] | – | – | – | – | −93 % vs veh | −88 % vs veh
